Test results reported in patent US12661316B2, “Creatine and/or creatinine compositions and related methods” (ThermoLife International, LLC, priority 2018, dated 2026).
Read-outs that look alike come from different tables or passages of the source.

How the values were obtained:
[1] = Human study: side effects, liver and kidney function (Example 7); format: in vivo
[2] = dosages up to 30 g for a few days; human subject; cited from earlier work
[3] = Chemical stability of creatine nitrate, creatine monohydrate and buffered creatine in pH 2.5 and pH 6.8 buffer; details: for pH of samples, initial: start of 12 days; for pH of samples, final: within a period of 12 days; for degradation rate constant: about 10 mg/ml
Protocol: The chemical stability of creatine nitrate (CN), creatine monohydrate (CM), and buffered creatine (BC) were examined under two different storage conditions: (1) 37° C. in pH 2.5 buffer and (2) 40° C. in pH 6.8 buffer. A concentration of about 10 mg/ml of CN, CM and BC were prepared in both pH 2.5 and pH 6.8 buffer and stored in stability chambers in screw capped bottles at 37° C. and 40° C., respectively.

[4] = cited from earlier work
[5] = dogs; cited from earlier work
human blood cells = details: addition of creatinine to human blood cells; cited from earlier work
[6] = injection of creatinine; mice; cited from earlier work
[7] = normal human volunteers who had ingested creatinine; cited from earlier work
[8] = radiokinetic bioavailability study; cited from earlier work
[9] = cited from earlier work; for creatine degraded: three days of storage at 25° C.
[10] = with caffeine intake; cited from earlier work

Q: What does the source list for `CN(CC(=O)O)C(=N)N.O` [CM, creatine monohydrate]?
A: negative side effects (side effect reporting questionnaire) ([1]; in vivo): one subject reported gastrointestinal disturbances; increase of total creatine content in skeletal muscles [2]: more than 20%; pH of samples, initial ([3]; 37° C. in pH 2.5 buffer): 3.08±0.01; pH of samples, final ([3]; 37° C. in pH 2.5 buffer): 4.12±0.01; degradation in solution ([4]; refrigerated): slowed the rate of degradation; degradation in solution ([4]; stored at room temperature): degraded into creatinine within several days

Q: With `CN1CC(=O)NC1=N` [creatinine] as the compound, how does the erythrocyte survival time [5] read?
A: significant decrease

Q: And the spontaneous hemolysis (human blood cells)?
A: significant increase in spontaneous hemolysis

Q: What about the behavioural effect [6] of the same compound?
A: sedating or stupefying effect

Q: And the red cell lysis [7]?
A: same red cell lysing pattern

Q: Which creatine bioavailability [8] does the source give for `CN(CC(=O)O)C(=N)N` [creatine] here?
A: sharply reduced with increasing doses

Q: And the stability in solution ([9]; neutral pH (7.5 or 6.5))?
A: relatively stable

Q: And the creatine degraded ([9]; pH 3.5)?
A: 21%

Q: And the creatine degraded ([9]; pH 4.5)?
A: 12%

Q: And the creatine degraded ([9]; pH 5.5)?
A: 4%

Q: What about the “ergogenic effect on muscle” value [10] of the same compound?
A: completely eliminated

Q: With `CN(CC(=O)O)C(=N)N.O=[N+]([O-])O` [CN, creatine nitrate] as the compound, how does the “negative side effects (side effect reporting questionnaire)” value ([1]; ten human volunteers, nine did not report any negative side effects) read?
A: one subject reported gastrointestinal disturbances

Q: What about the degradation rate constant ([3]; 37° C. in pH 2.5 buffer) of the same compound?
A: 0.075±0.001 per day

Q: What about the degradation rate constant ([3]; 40° C. in pH 6.8 buffer) of the same compound?
A: 0.115±0.001 per day

Q: And the “pH of samples, initial” value ([3]; 40° C. in pH 6.8 buffer)?
A: 2.83±0.01

Q: What about the “pH of samples, final” value ([3]; 40° C. in pH 6.8 buffer) of the same compound?
A: 4.31±0.01
